Tested on: AMATA
Test: Greenhouse test, pre-emergence (PE) soil application
Type: in vivo, Amaranthus rudis
Details: group (B) compound alone, 20 g of AS/ha
From the text: The 1:1 mixture of the two soil types was used specifically for cultivating small-seeded dicotyledonous weed since the standard field soil on its own tends to silt up, which may have an adverse effect on the emergence of small-seeded weeds. The resistances mentioned in the tables were confirmed beforehand in standard monitoring experiments. Nevertheless, the origins examined may have additional, hitherto unconfirmed resistances to various mechanisms of action.
The pots were then cultivated in a greenhouse (12-16 h light, temperature day 20-22° C., night 15-18° C.) until the time of application. The pots were treated at various BBCH stages of the seeds/plants on a laboratory track sprayer with spray liquors comprising the compositions according to the invention, mixtures of the prior art or the individual components. Application of the active compounds or active compound combinations and wetting agents formulated as WG, WP, EC or otherwise was carried out at the appropriate growth stages of the plants. The amount of water used for spray application was 100-600 l/ha. After the treatment, the plants were returned to the greenhouses and fertilized and watered as required. The pots were cultivated in a greenhouse (12-16 h light, temperature day 20-22° C., night 15-18° C.).
3 weeks after the application, the foliar effect was evaluated on a scale of 0-100%:
0%=no noticeable effect compared to untreated plants
100%=full effect compared to untreated plants
The following abbreviations were used: • BBCH the BBCH code provides information about the morphological development stage of a plant. Officially, the abbreviation denotes the Biologische Bundesanstalt, Bundessortenamt and CHemische Industrie [Federal Biological Institute for Agriculture and Forestry, Federal Office for Crop Plant Varieties, Chemical Industry]. The range of BBCH 00-10 denotes the germination stages of the seeds until surface penetration. […]

**Q.** `COc1cc(OC)nc(NC(=O)NS(=O)(=O)c2ncccc2C(F)(F)F)n1` [(B1), flazasulfuron] was tested. Which “effect on AMATA resistant - group B (TSR), C1 (TSR)” value (shortened to “effect on AMATA resistant - group B”) did it give?
**A.** The value was 60.

**Q.** `COc1cc(OC)nc(NC(=O)NS(=O)(=O)c2cc(NC=O)ccc2C(=O)N(C)C)n1` [(B2), foramsulfuron] was tested. Which “effect on AMATA resistant - group B” value did it give?
**A.** Its value is 40.

**Q.** How did the “effect on AMATA resistant - group B” value turn out when `CCS(=O)(=O)c1cccnc1S(=O)(=O)NC(=O)Nc1nc(OC)cc(OC)n1` [(B3), rimsulfuron] was run?
**A.** Its value is 60.

Source: patent US9439430B2, “Method of controlling resistant harmful plants” (priority 2012, dated 2016)
